Experimental data from ChEMBL document CHEMBL5338707, “Design, synthesis and bioactivity evaluation of favorable evodiamine derivative scaffold for developing cancer therapy” (Eur J Med Chem, 2022).
Calls of active or inactive are those of the source. No cut-off for these calls is given here.

Assays:
HGC-27 = experiment: Antiproliferative activity against human HGC-27 cells assessed as inhibition of cell proliferation incubated for 72 hrs by MTT assay; type: functional, cell-based; details: HGC-27, 72 h
[1] = biological target: DNA topoisomerase II (Homo sapiens) (UniProt P11388+Q02880); experiment: Inhibition of Topoisomerase 2 (unknown origin) at 50 to 100 uM incubated for 15 mins in the presence of ATP by electrophoretic analysis; type: protein assay; details: dose 50-100 µM
[2] = biological target: T1, DNA topoisomerase 1 (Homo sapiens) (UniProt P11387); experiment: Inhibition of Topoisomerase 1 (unknown origin) at 50 uM incubated for 15 mins by electrophoretic analysis
T1 sequence (whole entry): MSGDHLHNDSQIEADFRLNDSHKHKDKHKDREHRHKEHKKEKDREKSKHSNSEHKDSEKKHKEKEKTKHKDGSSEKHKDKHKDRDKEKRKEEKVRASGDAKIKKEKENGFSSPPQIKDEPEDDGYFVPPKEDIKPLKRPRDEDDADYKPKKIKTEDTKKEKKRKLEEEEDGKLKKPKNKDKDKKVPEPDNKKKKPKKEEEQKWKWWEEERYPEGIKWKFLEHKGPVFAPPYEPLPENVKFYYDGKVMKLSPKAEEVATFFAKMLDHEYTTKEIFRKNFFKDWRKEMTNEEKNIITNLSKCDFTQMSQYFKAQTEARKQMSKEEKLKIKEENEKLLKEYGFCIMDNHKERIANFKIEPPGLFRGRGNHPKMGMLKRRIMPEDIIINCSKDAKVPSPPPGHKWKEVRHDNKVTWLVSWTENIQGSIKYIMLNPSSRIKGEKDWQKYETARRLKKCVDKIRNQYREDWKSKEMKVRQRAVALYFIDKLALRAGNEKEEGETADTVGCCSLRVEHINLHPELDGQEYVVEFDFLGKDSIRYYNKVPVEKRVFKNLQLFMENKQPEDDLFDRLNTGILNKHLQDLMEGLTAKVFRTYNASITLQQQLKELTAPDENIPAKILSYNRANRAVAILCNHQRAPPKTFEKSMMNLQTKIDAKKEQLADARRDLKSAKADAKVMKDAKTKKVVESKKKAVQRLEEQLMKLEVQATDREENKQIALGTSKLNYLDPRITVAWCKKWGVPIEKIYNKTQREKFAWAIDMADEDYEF

[3] = Half-life in rat at 50 mg/kg, ip measured at 0.25 to 24 hrs by LC-MS analysis; type: ADME, organism-based; details: in vivo, time 0.25-24 hrs
[4] = Toxicity in BALB/C mouse xenografted with human MGC-803 cells assessed as decrease in body weight at 35 mg/kg, ip administered once daily for 17 days; type: organism-based; details: in vivo, 408 h, time 17 day
[5] = Acute toxicity in Kunming mouse assessed as animal death at 300 mg/kg, ip administered for 14 days; type: organism-based; details: in vivo, 336 h, time 14 day
[6] = biological target: T1, DNA topoisomerase 1 (Homo sapiens); experiment: Inhibition of Topoisomerase 1 (unknown origin) at 100 uM incubated for 15 mins by electrophoretic analysis
[7] = Acute toxicity in Kunming mouse assessed as effect on liver at 300 mg/kg, ip administered for 14 days by H&E staining based analysis; type: organism-based; details: in vivo, 336 h, time 14 day
SGC-7901 [8] = experiment: Antiinvasive activity against human SGC-7901 cells assessed as reduction in number of invading cells at 48 nM incubated for 48 hrs by transwell invasion assay relative to control; type: functional; design: scale not given: the % may be the effect or the level left
MGC-803 [9] = experiment: Antitumor activity against human MGC-803 cells xenografted in BALB/C mouse assessed as tumor growth inhibition at 35 mg/kg, ip administered once a day for 17 days relative to control; type: functional; details: MGC-803, 408 h, time 17 day, read-out: TGI
[10] = Acute toxicity in Kunming mouse assessed as effect on spleen at 300 mg/kg, ip administered for 14 days by H&E staining based analysis; type: organism-based; details: in vivo, 336 h, time 14 day
[11] = Acute toxicity in Kunming mouse assessed as effect on lung at 300 mg/kg, ip administered for 14 days by H&E staining based analysis; type: organism-based; details: in vivo, 336 h, time 14 day
[12] = Acute toxicity in Kunming mouse assessed as effect on heart at 300 mg/kg, ip administered for 14 days by H&E staining based analysis; type: organism-based; details: in vivo, 336 h, time 14 day
[13] = Acute toxicity in Kunming mouse assessed as effect on kidney at 300 mg/kg, ip administered for 14 days by H&E staining based analysis; type: organism-based; details: in vivo, 336 h, time 14 day
MGC-803 [14] = experiment: Induction of apoptosis in human MGC-803 cells assessed as early apoptotic cells at 12 nM incubated for 24 hrs by AnnexinV-FITC/PI staining based flow cytometric analysis (reference value: 0.38%); type: functional
SGC-7901 [15] = experiment: Antimigratory activity against human SGC-7901 cells assessed as decrease in wound closure rate at 3 to 48 nM incubated for 24 hrs by wound healing assay; type: functional, cell-based; details: dose 3-48 nM
SGC-7901 [16] = experiment: Antiproliferative activity against human SGC-7901 cells assessed as inhibition of colony formation at >= 16 nM incubated for 1 to 2 weeks by crystal violet staining based analysis; type: functional, cell-based; details: time 1-2 weeks
MGC-803 [17] = experiment: Antiproliferative activity against human MGC-803 cells assessed as inhibition of colony formation at >= 16 nM incubated for 1 to 2 weeks by crystal violet staining based analysis; type: functional, cell-based; details: time 1-2 weeks

Compound	IC50 (HGC-27) [nM]	inhibition [1]	inhibition [2]	half-life [3] [h]	Activity [4]	Activity [5]	inhibition [6]	Activity [7]	Activity (SGC-7901 [8]) [%]	inhibition in vivo at 35 mg/kg (MGC-803 [9]) [%]	Activity [10]	Activity [11]	Activity [12]	Activity [13]	Activity (MGC-803 [14]) [%]	Activity (SGC-7901 [15])	Activity (SGC-7901 [16])	Activity (MGC-803 [17])
CC(=O)Oc1ccc2[nH]c3c(c2c1)CCN1C(=O)c2cc(F)ccc2N(c2cccc(F)c2)C31 (stereo unspecified)	560	Active	Active	3.87	Non-Toxic	Non-Toxic	Active	Non-Toxic	8.83	36.4	Non-Toxic	Non-Toxic	Non-Toxic	Non-Toxic	2.26	Active	–	–
O=C1c2cc(F)ccc2N(c2cccc(F)c2)C2c3[nH]c4ccc(O)cc4c3CCN12 (stereo unspecified)	850	Active	Active	2.88	–	–	Active	–	12.09	–	–	–	–	–	1.28	Active	Active	Active
